# Where a name gives a salt, the structure may show the parent alone.
# Assays:
# PRMT1 = PRMT1 (Homo sapiens, UniProt Q99873); assay: Radioactive PRMT1 methylation inhibition assay ([3H]-SAM, biotinylated histone H4 peptide); type: biochemical; conditions: for inhibition at 10 µM: compound at 10 μM, read-out: % Inhibition of PRMT1 (at 10 μM); for IC50: radioactive methylation assay, read-out: IC50 (μM) against PRMT1
# Procedure: A series of 2,5-substituted furan and 2,4-substituted thiazole derivatives were synthesized and screened for their inhibitory effects on PRMT1 by using the radioactive PRMT1 methylation inhibition assay, which measured the amount of methyl groups that transferred from [^3H]-SAM to a biotinylated histone H4 peptide [ac-[…](Biotin)] (Tables 1–3).
# The enzyme inhibitory activities and selectivity were measured by the radioisotope assay and AlphaLISA assay in ShangHai Chempartner Co., Ltd., according to the standard protocol. […] After 250 nL of compound solutions were added to the assay plate, 15 μl of PRMT1 enzyme solution or ×1 assay buffer for negative control was transferred to each well of prepared compound stock plates and the whole system (the final concentration of PRMT1 was 0.5 nM or 2 nM in the system) was incubated for 15 min at room temperature. […] Afterward, the reaction was stopped with the addition of 5 μl cold SAM solution to each well. Then, 25 μl volume per well was transferred to a Flashplate from the assay plate and incubated for a minimum of 1 h at room temperature. Finally, the Flashplate was washed with dH2O and 0.1% Tween-20 three times and then the reading plate in Microbeta using the program ^3H-Flashplate. The data were analyzed in GraphPad Prism 5 to obtain IC50 values.
# Sequence of PRMT1 (Q99873 whole entry): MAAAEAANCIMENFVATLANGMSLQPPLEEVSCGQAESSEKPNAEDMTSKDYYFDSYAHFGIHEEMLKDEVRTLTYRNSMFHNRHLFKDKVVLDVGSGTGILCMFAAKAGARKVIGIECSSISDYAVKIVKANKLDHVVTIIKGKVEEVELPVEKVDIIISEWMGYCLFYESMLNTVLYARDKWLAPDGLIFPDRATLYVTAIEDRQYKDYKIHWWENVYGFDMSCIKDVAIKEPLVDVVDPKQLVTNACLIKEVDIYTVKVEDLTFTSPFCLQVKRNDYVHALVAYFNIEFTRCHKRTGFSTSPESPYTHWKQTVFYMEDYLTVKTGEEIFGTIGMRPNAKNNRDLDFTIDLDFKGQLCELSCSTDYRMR
inhibition at 10 µM (PRMT1) [%],IC50 (PRMT1) [µM],melting point [°C],PRMT1 IC50 compared with DB75 (PRMT1; fold weaker than DB75),PRMT1 IC50 compared with SAH (PRMT1; fold weaker than SAH),Compound
48 ± 0.02,10.8 ± 1.3,95.9 to 98.3,–,–,"CNCCN(Cc1ccc(-c2ccc(C(=N)N)nc2)o1)C1CC1.Cl [Compound 1m, N-Methyl-N′-[5-(2-amidino-5-pyridyl)furan-2-yl-methyl]-N′-cyclopropylethylenediamine Hydrochloride]"
10.6 ± 2.24,–,–,–,–,"CNCCN(C)Cc1ccc(-c2ccc(C(N)=O)cc2)o1 [Compound 1a, N′-[5-(4-Formamide-phen-1-yl)-furan-2-yl-methyl]-N,N′-dimethylethylenediamine Hydrochloride]"
92.12 ± 0.28,1.29 ± 0.12,75.8 to 78.2,four times weaker than DB75,about two times weaker than SAH,"CNCCN(C)Cc1ccc(-c2ccc(C(=N)N)nc2)o1.Cl [Compound 1l, N′-[5-(2-Amidino-5-pyridyl)furan-2-yl-methyl]-N,N′-dimethylethylenediamine Hydrochloride]"
35.97 ± 0.2,–,–,–,–,"CNCCN(C)Cc1ccc(-c2ccc(C(N)=NO)c(F)c2)o1 [Compound 1f, N′-[5-(3-Fluoro-4-N-hydroxyamidino-phen-1-yl)-furan-2-yl-methyl]-N,N′-dimethylethylenediamine Hydrochloride]"
89.02 ± 0.05,2.41 ± 0.18,223.4 to 224.8,–,–,"CN(CCN)Cc1ccc(-c2ccc(C(=N)N)nc2)o1.Cl [Compound 1o, N′-[5-(2-Amidino-5-pyridyl)furan-2-yl-methyl]-N′-methylethylenediamine Hydrochloride]"
50 ± 0.18,21.4 ± 12.8,60.2 to 61.1,–,–,"CNCCN(C)Cc1ccc(-c2ccc(N)cc2)o1.Cl [Compound 1c, N′-[5-(4-Aminophenyl)-furan-2-yl-methyl]-N,N′-dimeth-ylethylenediamine Hydrochloride]"
–,–,231.2 to 232.8,–,–,"CNCCN(C)Cc1ccc(-c2ccc(C(N)=NO)cc2)o1 (as salt: hydrochloride) [Compound 1e, N′-[5-(4-N-Hydroxyamidino-phen-1-yl)-furan-2-yl-meth-yl]-N,N′-dimethylethylenediamine Hydrochloride]"
39.98 ± 0.19,–,–,–,–,"CNCCN(C)Cc1ccc(-c2cccc(C(N)=NO)c2)o1 [Compound 1g, N′-[5-(3-N-Hydroxyamidino-phen-1-yl)-furan-2-yl-methyl]-N,N′-dimethylethylenediamine Hydrochloride]"
–,–,246.2 to 246.9,–,–,"CNCCN(C)Cc1ccc(-c2ccc(C(=O)NN)cc2)o1 (as salt: hydrochloride) [Compound 1b, N′-[5-(4-Formylhydrazide-phen-1-yl)-furan-2-yl-methyl]-N,N′-dimethylethylenediamine Hydrochloride]"
–,–,156.5 to 159.2,–,–,"CNCCN(C)Cc1ccc(-c2ccc(C(=N)N)c(F)c2)o1 (as salt: hydrochloride) [Compound 1i, N′-[5-(3-Fluoro-4-amidino-phen-1-yl)-furan-2-yl-methyl]-N,N′-dimethylethylenediamine Hydrochloride]"
35.99 ± 0.09,–,64.2 to 65.2,–,–,"CNCCN(C)Cc1ccc(-c2cccc(N)c2)o1.Cl [Compound 1d, N′-[5-(3-Aminophenyl)-furan-2-yl-methyl]-N,N′-dimethylethylenediamine Hydrochloride]"
48 ± 0.02,–,–,–,–,"CNCCN(C)Cc1ccc(-c2ccc(C(=O)NN)cc2)o1 [Compound 1b, N′-[5-(4-Formylhydrazide-phen-1-yl)-furan-2-yl-methyl]-N,N′-dimethylethylenediamine Hydrochloride]"
76.5 ± 0.01,2.5 ± 0.91,–,–,–,"CNCCN(C)Cc1ccc(-c2ccc(Cl)c(C(=N)N)c2)o1 [Compound 1k, N′-[5-(3-Amidino-4-chloro-phen-1-yl)-furan-2-yl-methyl]-N,N′-dimethylethylenediamine Hydrochloride]"
73.51 ± 0.06,4.68 ± 0.26,197.7 to 199.3,–,–,"Cl.N=C(N)c1ccc(-c2ccc(CN3CCNCC3)o2)cn1 [Compound 1n, N′-[5-(2-Amidino-5-pyridyl)furan-2-yl-methyl]-piperazine Hydrochloride]"
–,–,212.2 to 214.6,–,–,"CNCCN(C)Cc1ccc(-c2ccc(C(N)=O)cc2)o1 (as salt: hydrochloride) [Compound 1a, N′-[5-(4-Formamide-phen-1-yl)-furan-2-yl-methyl]-N,N′-dimethylethylenediamine Hydrochloride]"
68 ± 0.02,4.42 ± 0.63,–,–,–,"CNCCN(C)Cc1ccc(-c2ccc(C(=N)N)c(F)c2)o1 [Compound 1i, N′-[5-(3-Fluoro-4-amidino-phen-1-yl)-furan-2-yl-methyl]-N,N′-dimethylethylenediamine Hydrochloride]"
32,–,–,–,–,"CNCCN(C)Cc1ccc(-c2ccc(C(N)=NO)cc2)o1 [Compound 1e, N′-[5-(4-N-Hydroxyamidino-phen-1-yl)-furan-2-yl-meth-yl]-N,N′-dimethylethylenediamine Hydrochloride]"
–,–,60.8 to 63.2,–,–,"CNCCN(C)Cc1ccc(-c2cccc(C(N)=NO)c2)o1 (as salt: hydrochloride) [Compound 1g, N′-[5-(3-N-Hydroxyamidino-phen-1-yl)-furan-2-yl-methyl]-N,N′-dimethylethylenediamine Hydrochloride]"
–,–,216.8 to 218.6,–,–,"CNCCN(C)Cc1ccc(-c2ccc(C(N)=NO)c(F)c2)o1 (as salt: hydrochloride) [Compound 1f, N′-[5-(3-Fluoro-4-N-hydroxyamidino-phen-1-yl)-furan-2-yl-methyl]-N,N′-dimethylethylenediamine Hydrochloride]"
–,–,223 to 225,–,–,"CNCCN(C)Cc1ccc(-c2ccc(Cl)c(C(=N)N)c2)o1 (as salt: hydrochloride) [Compound 1k, N′-[5-(3-Amidino-4-chloro-phen-1-yl)-furan-2-yl-methyl]-N,N′-dimethylethylenediamine Hydrochloride]"

Compound,inhibition at 10 µM (PRMT1) [%],IC50 (PRMT1) [µM],melting point [°C],PRMT1 IC50 compared with DB75 (PRMT1; fold weaker than DB75),PRMT1 IC50 compared with SAH (PRMT1; fold weaker than SAH)
"N=C(N)c1ccc(-c2ccc(-c3ccc(C(=N)N)cc3)o2)cc1 [DB75, furamidine, reference compound]",98.13 ± 0.27,0.31 ± 0.04,–,–,–

# Reference: paper PMC9214036, “Design and Synthesis of Novel PRMT1 Inhibitors and Investigation of Their Effects on the Migration of Cancer Cell” (Frontiers in Chemistry, 2022)
